Source: PubChem BioAssay (NCI)
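These data come from cells grown in 96-well plates and exposed to compound for 48 hours at five concentrations. Definition used: TGI = concentration required for complete inhibition of growth.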

Experiments:
Assay in all cases: NCI tumour cell line growth inhibition, 48 h
U251 CNS = tested on: U251 CNS
ACHN renal = tested on: ACHN renal
HOP-62 NSCLC = tested on: HOP-62 NSCLC
LXFL 529 NSCLC = tested on: LXFL 529 NSCLC
SF-268 CNS = tested on: SF-268 CNS
SK-MEL-28 melanoma = tested on: SK-MEL-28 melanoma
TK-10 renal = tested on: TK-10 renal
K-562 leukemia = tested on: K-562 leukemia
UACC-257 melanoma = tested on: UACC-257 melanoma
HT29 colon = tested on: HT29 colon
KM20L2 colon = tested on: KM20L2 colon
NCI-H23 lung = tested on: NCI-H23 lung
LOX IMVI melanoma = tested on: LOX IMVI melanoma
RPMI-8226 leukemia = tested on: RPMI-8226 leukemia
SNB-75 CNS = tested on: SNB-75 CNS
NCI-H460 lung = tested on: NCI-H460 lung
DMS 273 small cell lung = tested on: DMS 273 small cell lung
OVCAR-3 ovarian = tested on: OVCAR-3 ovarian
RXF 393 renal = tested on: RXF 393 renal
A549 NSCLC = tested on: A549 NSCLC

Measured: TGI

O=C1c2ccccc2N(O)C1(c1ccccc1)C1CCCC=C1N1CCOCC1 (stereo not given)
> 100 µM: all assays above
